{"source": "patent US8455435B2", "about": "“Remedies for ischemia” (Ludwig-Maximilians-Universitat Munchen, priority 2006, dated 2013)", "system": "infarcted left ventricle", "assay": "Histology: infarct size, wall thickness, infarct composition after MI, PTH treatment", "type": "in vivo, C57BL/6 mice", "settings": "for LV-infarct size (area of necrosis and granulation tissue): day 6, % of total LV area", "protocol": "Myocardial infarction was induced in male C57BL/6 mice 8-12 weeks of age by surgical occlusion of the left anterior descending artery (LAD) through a left anterolateral approach. Mice were anesthetized by intraperitoneal injection of a mixture of 100 mg/kg ketamine (Sigma Chemical Co., St. Louis, Mo.) and 5 mg/kg Xylazine (Sigma), intubated and artificially ventilated by a mouse ventilator (HUGO SACHS, March, Germany) with 200 strokes/min and 200 μl/stroke. Animal care and all experimental procedures were performed in strict accordance to the German and National Institutes of Health animal legislation guidelines and were approved by the local animal care and use committees.\nAfter occlusion of the LAD, mice were divided into the following groups 1) subcutaneous administration of saline daily for 5 days, sacrificed at day 6 (n=10) and day 30 (n=15); 2) administration of rat PTH (1-34) daily for 5 and 14 consecutive days (80 μg/kg/d s.c., Bachem), sacrificed at day 6 (n=9) and day 30 (n=15); 3) sham operated animals sacrificed at day 30 (n=5), and not operated control animals receiving saline (n=6) sacrificed at day 6 and at day 30. All animals received BrdU ([…]) for 5 consecutive days. BrdU and cytokine treatment were started 12-24 hours after LAD occlusion.\nAt day 6 (n=10) and day 30 (n=10), hearts were excised. After fixation in 4% phosphate buffered formalin the hearts were cut transversally into 2 mm thick slices and embedded in paraffin. 4 μm thick sections were cut and mounted on positively charged glass slides. Standard histological procedures (hematoxilin/eosin and Masson trichrome) and immunostaining (see below) were performed.\nInfarct size was determined as area of infarction (Al) correlated to the area of the left ventricle (including LV-septum) in four different slices from the base to the apex of a heart. Total infarct size was calculated by multiplication of the mean percentage value of the circular infarct area with the quotient: vertical extension of the infarct area/total ventricular extension. Wall thickness was measured by taking the average length of five segments along radii from the centre of the left ventricle through the thinnest points of the free LV wall and the septal wall. All studies were performed by a blinded pathologist.", "note": "Where “and” joins values, the source holds several entries; their conditions need not be identical. Equal values may be shown once."}
{"substance": "rat PTH (1-34)", "values": [{"measurement": "anterior (free LV) wall thickness", "setting": "day 6", "value": 0.58, "unit": "mm"}, {"measurement": "cellular density in the granulation tissue", "setting": "day 6", "value": "3317±171 /mm^2"}, {"measurement": "LV-infarct size (area of necrosis and granulation tissue)", "value": 37, "unit": "%"}, {"measurement": "LV-infarct size (area of necrosis and granulation tissue)", "setting": "listed as rPTH(1-34)", "value": "37.3±4.9", "unit": "%"}, {"measurement": "anterior (free LV) wall thickness", "setting": "day 30", "value": 0.22, "unit": "mm"}, {"measurement": "frequency of large LV-aneurysms", "setting": "day 30, vs saline", "value": "lower frequency"}, {"measurement": "infarct size (area of fibrosis)", "setting": "day 30 after LAD occlusion", "value": "23.3±4.6% and 23%"}]}
